Laboratory results from patent publication US12304909B2, “Compounds and their use in therapy” (IMPERIAL COLLEGE INNOVATIONS LIMITED, priority 2018, dated 2025).

Experiments:
Mouse half life in vivo = details: plasma; mouse oral half-life; male CD-1 mice, 10 mg/kg po; read-out: Rat or mouse t ½ (mouse) (converted)
Description: Example Compound 1, and Comparative Examples 2 and 3 were tested for metabolic stability in male Sprague-Dawley rats. Comparative Example 5 was tested for metabolic stability in male CD-1 mice. Compounds having good metabolic stability in rats or mice are expected to be especially useful as agents for preventing and/or treating cancer, by having a long half-life in human patients.
Same as rat protocol except that CD-1 mice were dosed at 5 mg/kg iv and 10 mg/kg po.

[1] = Human liver microsomes half life; type: in vitro ADME; details: pH 7.4, read-out: Human liver microsomes t ½
Description: Example Compound 1 was tested for metabolic stability in an assay using human liver microsomes. Comparative Examples 2, 3, 4, 5 and 6 were also tested in the same assay. Compounds having good metabolic stability in the assay are expected to be especially useful as agents for preventing and/or treating cancer, by having a long half-life in human patients
Frozen human liver microsomes obtained from Corning, USA (cat #452117) were thawed and diluted with 100 mM of pH 7.4 phosphate buffer to give a 1 mg/ml solution. An NADPH regeneration system (NRS) was prepared as a solution containing 13 mM NADP, 33 mM glucose-6-phosphate, 33 mM MgCl2 and 4U/mL glucose-6-phosphate dehydrogenase in 100 mM of pH7.4 phosphate buffer. The test compound (4 mM) in DMSO was diluted with acetonitrile to provide a 100 μM sub-stock then further diluted with 100 mM of pH7.4 phosphate buffer to provide a 2 μM working solution. The liver microsome solution and NRS were incubated at 37° C. before use. To each well of the test plate was dispensed 60 μL of buffer, 50 μL of test compound solution and 10 μL of NRS. A reaction was initiated by addition of 40 μL of liver microsome solution. Wells were incubated for an appropriate time (0, 5, 10, 20, 30 and 60 min) then quenched with 300 μL of acetonitrile containing reference standards atenolol, propranolol, diclofenac, verapamil). All plates were centrifuged at 3500 rpm for 20 min at 15° C. to pellet the debris. 110 μL supernatant was diluted 110 μL water and quantitated using LC-MS/MS.
The results were used to calculate the % Remaining of the test compound at time point t=100×˜[(AUC at time point t)/(AUC at T=0)]. A linear regression curve was fitted to a plot of natural logarithm (In) of AUC against time. The T-half (min)=0.693/slope.

MRC5 cells = assay: Metabolic activity assay (MTS assay), MRC5; type: cell-based, human; details: Homo sapiens, MRC5, 72 h
Description: Example NMT inhibitors of the present invention were tested for activity in an in vitro metabolic activity assay using the human cell line MRC5. Comparative Examples 1, 2, 3, 4, 5 and 6 were also tested in the same metabolic activity assay. Compounds having activity in inhibiting metabolic activity in the assay are expected to be useful as agents for preventing and/or treating cancer, by virtue of being inhibitors of human NMT1 and/or NMT2.
MRC5 cells (obtained from Dr David Mann's group, Imperial College; cell type: fibroblasts cells which derive from normal lung tissue) were grown in DMEM media (supplemented with 10% FBS) and were seeded in a 96-well plate, 24 h prior to treatment. Cell suspensions were prepared by adjusting the cell density to the appropriate concentration (as stated in the Table 1 below) and 50 μL of the cell suspension was transferred to wells B-G in columns 2-11 of a 96-well plate.
100 μL of growth media (DMEM media) containing 0.2% DMSO was added to wells B-G in columns 2 and 11 as positive controls, and 100 μl of growth media containing Puromycin (3 μg/mL; final concentration in the plate 2 μg/mL) was added to wells B-G in column 3 as a negative control. Seven concentrations of NMT inhibitor stock solution were prepared for each Example (Example 1 and 2) and each Comparative Example (Comparative Examples 1, 2, 3, 4, 5 and 6) tested (same final percentage of DMSO, dilution factor=3 starting from 15 μM or 150 μM). 100 μL of inhibitor stock solution was added to wells B-G in columns 4-10 of a 96-well plate (final concentration of Example compound or Comparative Example compound in the plate starting from 10 μM or 100 μM; total volume in each well was 150 μL). The plate was incubated at 37° C. with 5% CO2 level.
After 72 h, 20 μL MTS reagent (Promega, prepared according to the supplier protocol) was added to each well of the 96-well plate. The plate was incubated at 37° C. for 2 h and the absorbance per well was measured at 490 nm with an EnVision plate reader. The average absorbance value of the negative control (Puromycin-treated cells) was subtracted from each value and the metabolic activity was calculated as a percentage relative to the positive control (DMSO-treated cells). EC50 values were calculated using GraphPad.

human NMT1 (HsNMT1) = molecular target: T1, human NMT1 (HsNMT1) (Homo sapiens, UniProt P30419); assay: HsNMT1 IC50, fluorescence-based assay detecting CoA with CPM; type: biochemical
T1 sequence (P30419 1-496): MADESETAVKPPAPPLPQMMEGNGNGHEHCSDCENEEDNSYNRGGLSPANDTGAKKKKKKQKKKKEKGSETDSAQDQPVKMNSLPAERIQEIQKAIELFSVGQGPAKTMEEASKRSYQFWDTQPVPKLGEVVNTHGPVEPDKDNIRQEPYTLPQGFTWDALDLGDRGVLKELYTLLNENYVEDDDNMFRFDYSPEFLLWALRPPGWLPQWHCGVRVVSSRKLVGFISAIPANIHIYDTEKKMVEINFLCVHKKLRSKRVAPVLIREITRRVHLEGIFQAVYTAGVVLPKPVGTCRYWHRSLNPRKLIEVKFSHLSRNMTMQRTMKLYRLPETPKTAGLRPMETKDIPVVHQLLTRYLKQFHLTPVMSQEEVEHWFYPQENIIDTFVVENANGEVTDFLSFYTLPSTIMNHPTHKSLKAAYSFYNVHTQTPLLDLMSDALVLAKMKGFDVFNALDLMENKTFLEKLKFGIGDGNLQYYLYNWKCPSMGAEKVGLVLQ
Description: The IC50 values for human NMT1 (HsNMT1) of four Example compounds of the invention described above (Examples 1-4) and six comparative examples (Comparative Examples 1, 2, 3, 4, 5 and 6) were measured using a sensitive fluorescence-based assay based on detection of CoA by 7-diethylamino-3-(4-maleimido-phenyl)-4-methylcoumarin, as described in Goncalves, V., et al., Analytical Biochemistry, 2012, 421, 342-344 and Goncalves, V., et al., J. Med. Chem, 2012, 55, 3578.

half-life (Mouse half life in vivo): 42 min | half-life at 0.625 µM [1]: 7 min | IC50 (human NMT1 (HsNMT1)): 0.013 µM
SMILES: Cc1nn(C)c(C)c1CCOc1cc(F)ccc1-c1ccc2c(c1)c(CN(C)C)nn2C [Comparative Example 5, 1-(5-(4-fluoro-2-(2-(1,3,5-trimethyl-1H-pyrazol-4-yl)ethoxy)phenyl)-1-methyl-1H-indazol-3-yl)-N,N-dimethylmethanamine]
EC50 (MRC5 cells): 27 µM
